# Test results taken from patent publication US20230111558A1, “Composition for Preventing and Treating Heart Dysfunction and its Application Thereof” (21ST CENTURY HERBS & HEALTH, priority 2021, published 2023).
# Experiments:
# Type in all cases: in vivo
# [1] = system: LDH; experiment: Lactate dehydrogenase (LDH) in ISO-induced zebrafish; details: ISO=0.02 mg/L, CoQ10=4.0 mg/L, 24 hours; vs ISO group
# Procedure: (§1) Three-day post fertilization wild-type zebrafish with normal development are used for the experiment and divided them into 4 groups, namely the control group, the ISO group (ISO=0.02 mg/L), the TC group (CoQ10=4.0 mg/L), and the CoQ10 group (CoQ10=4.0 mg/L), 30 in each group; The zebrafish in the ISO group are immersed in the ISO solution prepared with embryo culture water for 24 hours, then taken out and recorded their heart rate under a microscope. The signs of successful ISO-induced myocardial injury in zebrafish are a significant decrease in heart rate and the formation of pericardial edema. The zebrafish in the TC and CoQ10 groups are respectively immersed in embryo breeding water containing ISO and TC or CoQ10, incubated for 24 hours and then taken out for photography under a microscope.
# (§2) The detection of SOD and LDH are carried out according to the instructions of the kits, which are purchased from NanJing JianCheng Bioengineering Institute with the article numbers of A001-3, A020-2 and A019-2-1, respectively.
# [2] = system: brain natriuretic peptide (BNP); experiment: BNP gene expression by RT-PCR in ISO-induced zebrafish; details: ISO=0.02 mg/L, CoQ10=4.0 mg/L, 24 hours; vs ISO group
# Procedure: as §1
# (§3) Zebrafish RNA extraction, reverse transcription and quantitative amplification are performed in accordance with the instructions of the kit obtained from Nanjing Vazyme Biotech Co., Ltd, the article numbers are RC101, R223-01 and Q711-02.
# (§4) ANP refers to atrial natriuretic peptide, BNP refers to brain natriuretic peptide, GAPDH refers to glyceraldehyde 3-phosphate dehydrogenase.
# [3] = system: ISO-induced zebrafish; experiment: ISO-induced zebrafish pericardial edema (pericardial height); details: ISO=0.02 mg/L, CoQ10=4.0 mg/L, 24 hours; vs ISO group
# Procedure: as §1
# Images are used to measure the height of the pericardium, the distance between the front of the yolk sac and the top of the pericardium, as shown by the arrow in FIG. 3(A).
# [4] = system: H/R zebrafish; experiment: Cardiac function of hypoxia-reoxygenation (H/R) zebrafish; details: CoQ10=4.0 mg/L, reoxygenation 24 hours, vs H/R group
# Procedure: (§5) The zebrafish experiments are conducted in accordance to the internationally accepted standards. The wild type zebrafish strain AB is provided by the Developmental Biology Platform of Chongqing Medical University. Using the Shanghai Haisheng zebrafish aquatic ecosystem, the temperature in the fish tank is 28.5° C., the water temperature is 28-30° C., the salinity is 0.03%-0.04%, the pH is 7.2-7.6, and the photoperiod is 14 h light-10 h dark.
# Three-day post fertilization wild-type of zebrafish with normal development are used for the experiment. The zebrafish are divided into 4 groups, namely the control group, the H/R (Hypoxia-reoxygenation) group, the TC group (CoQ10=4.0 mg/L), and the CoQ10 group (CoQ10=4.0 mg/L), n=30. Fill the beaker with circulating water for fish breeding, and then fill the water with high purity nitrogen. At the same time, use dissolved oxygen meter to detect the oxygen concentration in the water. Stop filling nitrogen until the oxygen concentration is stable at 0.00 mg/L. The air in the bevel glass bottle is discharged with nitrogen, and the prepared hypoxic water is put into the bevel glass bottle. The juvenile zebrafish of 3 days are put into the bottle, the cap is tightened, the glass bottle is placed into a plastic sealed bag, and then the sealed bag is vacuumed to ensure that no air enters. The end point of hypoxia is that the young fish sank to the bottom and remained motionless for 1 minute. At the same time, the zebrafish bent its body, turned the glass bottle upside down and then put it flat. The zebrafish sank head down and vertically. Then, the zebrafish are taken out and put into aquaculture water or medicine solution prepared with aquaculture water. After reoxygenation for 24 hours, the heart function indexes of zebrafish are examined.
# (§6) First, the zebrafish are placed at room temperature and counted the number of heart beats within 15 seconds under a microscope. Then, the heart rate is obtained by multiplying it by 4. Then the zebrafish are placed in a petri dish, fixed with 1% low-melting agar, and held in a lateral position (with the eyes on top of the segments and the tail at the same level as the body). Fifty-eight images are generated by using an inverted fluorescence microscope for five consecutive shots. The diastolic and systolic images are selected, and the length (a) and width (b) of the ventricles are measured. The volume (V) of the ventricles is calculated with the ellipsoidal volume formula, and the surface area (S) of the ventricles is calculated with the elliptical area formula. The stroke-volume (SV), ejection fraction (EF), and fractional area change (FAC), cardiac output (CO) of zebrafish are calculated. Ventricular volume (V)=4/3π(a/2) (b/2)^2; Stroke-volume (SV)=Vdiastolic−Vsystolic; Ejection Fraction (EF)=(Vdiastole−Vsystole)/Vdiastole; Ventricular surface area (S)=(a/2) (b/2)π; Fractional Area Change (FAC)=(Sdiastolic−Ssystolic)/Sdiastolic; Cardiac Output (CO)=Cardiac volume*heart rate.
# [5] = system: atrial natriuretic peptide (ANP); experiment: ANP gene expression by RT-PCR in ISO-induced zebrafish; details: ISO=0.02 mg/L, CoQ10=4.0 mg/L, 24 hours; vs ISO group
# Procedure: as §1, §3, §4
# [6] = system: ISO-induced zebrafish; experiment: Cardiac function of ISO-induced zebrafish myocardial injury model; details: ISO=0.02 mg/L, CoQ10=4.0 mg/L, 24 hours; vs ISO group
# Procedure: as §5, §1, §6
# [7] = system: SOD; experiment: Superoxide dismutase (SOD) in ISO-induced zebrafish; details: ISO=0.02 mg/L, CoQ10=4.0 mg/L, 24 hours; vs ISO group
# Procedure: as §1, §2
smiles,measurement,setting,value
"COC1=C(OC)C(=O)C(C/C=C(\C)CC/C=C(\C)CC/C=C(\C)CC/C=C(\C)CC/C=C(\C)CC/C=C(\C)CC/C=C(\C)CC/C=C(\C)CC/C=C(\C)CCC=C(C)C)=C(C)C1=O [CoQ10, Coenzyme Q10]",activity of LDH,[1],"reduced the activity of LDH, the result is insignificant"
same,excessive expression of BNP,[2],significantly reduce
same,pericardial edema (pericardial height),[3],no effect
same,cardiac output (CO),[4],significantly increase
same,ejection fraction (EF),[4],significantly increase
same,fractional area change (FAC),[4],significantly increase
same,heart rate,[4],no significant effect
same,stroke volume (SV),[4],significantly increase
same,excessive expression of ANP,[5],significantly reduce
same,cardiac output (CO),[6],significantly increase
same,ejection fraction (EF),[6],significantly increase
same,fractional area change (FAC),[6],significantly increase
same,heart rate,[6],no significant effect
same,stroke volume (SV),[6],significantly increase
same,activity of SOD,[7],no significantly effect
